In US9233978B2, “6-fused heteroaryldihydropyrimidines for the treatment and prophylaxis of hepatitis B virus infection” (Hoffmann-La Roche Inc., priority 2014, dated 2016):
In brackets after ≈: the same amount, converted by molar mass. Like-named read-outs stand apart in the source and are kept apart here.

Experiments:
HepDE19 cells = assay: Cytotoxicity in HepDE19 cells (CCK-8) and selectivity index; type: cell-based; details: for Selectivity index (CC50/EC50): CC50 (HepDE19) value / EC50 (HepG2.2.15) value; for CC50: HepDE19 cells, CCK-8 cell viability, five days after treatment
Source text: (§1) HepG2.2.15 and HepDE19 are stably-transfected cell lines containing the HBV genome. Both cell lines are derived from the hepatoblastoma cell line Hep G2 (American Type Culture Collection, ATCC® HB-8065™) by the published procedures described in references: MA Selles et al. Proc. Natl. Acad. Sci. USA 1987, 84, 1005-1009 and H Guo et al. Journal of Virology 2007, 81, 12472-12484, respectively. Both cell lines were maintained in Dulbecco's modified Eagle's medium (DMEM)-F12 medium supplemented with 10% fetal bovine serum, 100 U/mL penicillin, 100 μg/mL streptomycin, and 0.5 mg/mL of G418.
(§2) HepDE19 cells were seeded into 96-well plates (5×10^3 cells per well) and treated with compounds for EC50 determination. Five days after treatment, cell viability was measured by addition of 20 μL of CCK-8 reagent. Two hours after incubation at 37° C., the absorbance at wavelengths of 450 nm and 630 nm (OD450 and OD630) was recorded by a plate reader. The concentration results in the death of 50% of the host cells (CC50) of each compound were determined.
(§3) The relative effectiveness of the compound in inhibiting viral replication compared to inducing cell death was defined as the selectivity index (CC50 value/EC50 value). Based on CC50 and EC50 data, selectivity indexes were determined.

[1] = as above; type: cell-based; details: human, HepDE19 cells; CCK-8 cell viability; five days after treatment
Source text: as §1, §2, §3

HBV = assay: Anti-HBV activity in vitro, HepG2.2.15 cells, extracellular HBV DNA by qPCR; type: cell-based; details: HepG2.2.15 cells, HBV replication inhibited by 50%, extracellular HBV DNA by qPCR, five days after compound treatment, read-out: EC50
How it was run: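 Extracellular HBV DNA in culture supernatant was measured by qPCR after nucleic acid extraction. The supernatant came from constitutively replicating HepG2.2.15 cells exposed for five days to half-log-diluted compounds, with DMSO at 0.5% final. Cells had been plated overnight at 37 °C beforehand.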

Lysa solubility = type: physicochemical; details: 0.05 M phosphate buffer (pH 6.5)
How it was run: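 Duplicate samples dried from 10 mM DMSO stocks, taken up in 0.05 M phosphate buffer pH 6.5, stirred 1 h, shaken 2 h and left overnight. Filtrate and 1/10 dilution quantified by direct UV or HPLC-UV, in μg/mL; above 80% of the calculated maximum, reported as greater than that value.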

[2] = Human microsomal metabolic stability; type: in vitro ADME; details: human microsomes 0.5 mg/mL, 1 μM test compound, NADPH, 37° C., pH 7.4, 0-30 minutes
How it was run: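 1 μM compound with 0.5 mg/mL human liver microsomal protein in 100 mM phosphate pH 7.4 at 37° C, started with 1 mM NADPH or a NADPH-regenerating system. Sampled at 0–30 min, quenched in cold methanol with tolbutamide internal standard; remaining parent quantified by LC-MS/MS.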

[3] = Hepatitis B virus, HepG2.2.15, 120 h

Row | Compound | Selectivity index (CC50/EC50) (HepDE19 cells) | CC50 at 5 days [1] [µM] | EC50 (HBV; [3]) [µM] | Lysa (Lysa solubility) [µg/mL] | CC50 (HepDE19 cells) [µM] | Human Microsomal Clearance [2] [mL/min/kg] | EC50 (HBV) [µM] | solubility thermodynamic (Lysa solubility; phosphate buffer, pH 6.5, aqueous buffer, thermodynamic from solid) [µg/mL]
1 | CCOC(=O)C1=C(CN2CCN3C(=O)N(CC4CC4)C[C@@H]3[C@H]2C(=O)O)NC(c2nccs2)=N[C@H]1c1cccc(F)c1Cl (single isomer, unassigned) [Example 97B] | >100000 | > 100 | 0.0009 |  |  |  |  | 
2 | CCOC(=O)C1=C(CN2CCN3C(=O)N(CC(C)(C)C(=O)O)C[C@@H]3C2)NC(c2nc(C)cs2)=N[C@H]1c1cccc(F)c1Cl [Example 98, 3-[(8aS)-7-[[(4R)-4-(2-chloro-3-fluoro-phenyl)-5-ethoxycarbonyl-2-(4-methylthiazol-2-yl)-1,4-dihydropyrimidin-6-yl]methyl]-3-oxo-5,6,8,8a-tetrahydro-1H-imidazo[1,5-a]pyrazin-2-yl]-2,2-dimethyl-propanoic acid] | 6636 | 73 | 0.011 |  |  |  |  | 
3 | CCOC(=O)C1=C(CN2CCN3C(=O)N(C4CCC(C(=O)O)C4)C[C@@H]3C2)NC(c2nccs2)=N[C@H]1c1cccc(F)c1Cl (mixture of isomers) [Example 64, (R)-6-[(S)-2-((1R,3R)-3-Carboxy-cyclopentyl)-3-oxo-hexahydro-imidazo[1,5-a]pyrazin-7-ylmethyl]-4-(2-chloro-3-fluoro-phenyl)-2-thiazol-2-yl-1,4-dihydro-pyrimidine-5-carboxylic acid ethyl ester and (R)-6-[(S)-2-((1S,3S)-3-Carboxy-cyclopentyl)-3-oxo-hexahydro-imidazo[1,5-a]pyrazin-7-ylmethyl]-4-(2-chloro-3-fluoro-phenyl)-2-thiazol-2-yl-1,4-dihydro-pyrimidine-5-carboxylic acid ethyl ester] | 8375 |  |  | >669 | 67 | 5.6 | 0.008 | 
4 | CCOC(=O)C1=C(CN2CCN3C(=O)N(C(C)C)C[C@@H]3C2)NC(c2nccs2)=N[C@H]1c1cccc(F)c1Cl (single isomer, unassigned) [Example 104B] | >6750 | 27 | 0.004 |  |  |  |  | 
5 | CCOC(=O)C1=C(CN2CCN3C(=O)N(CCO)CC3C2)NC(c2nccs2)=N[C@H]1c1cccc(F)c1Cl (stereo partly drawn) [Example 70, Ethyl (4R)-4-(2-chloro-3-fluoro-phenyl)-6-[[2-(2-hydroxyethyl)-3-oxo-5,6,8,8a-tetrahydro-1H-imidazo[1,5-a]pyrazin-7-yl]methyl]-2-thiazol-2-yl-1,4-dihydropyrimidine-5-carboxylate] | 12600 | 63 | 0.005 |  |  |  |  | 
6 | COC(=O)C1=C(CN2CCN3C(=O)OC[C@@H]3C2)NC(c2nccs2)=N[C@H]1c1ccc(F)cc1Cl [Example 4, Methyl (4R)-6-[[(8aS)-3-oxo-5,6,8,8a-tetrahydro-1H-oxazolo[3,4-a]pyrazin-7-yl]methyl]-4-(2-chloro-4-fluoro-phenyl)-2-thiazol-2-yl-1,4-dihydropyrimidine-5-carboxylate] | 23872 | 79 | 0.003 |  |  |  |  | 
7 | COC(=O)C1=C(CN2CCN3C(=O)N(C4CCC(C(=O)O)C4)C[C@@H]3C2)NC(c2nccs2)=N[C@H]1c1ccc(F)cc1Cl (mixture of isomers) [Example 63, (R)-6-[(S)-2-((1R,3R)-3-Carboxy-cyclopentyl)-3-oxo-hexahydro-imidazo[1,5-a]pyrazin-7-ylmethyl]-4-(2-chloro-4-fluoro-phenyl)-2-thiazol-2-yl-1,4-dihydro-pyrimidine-5-carboxylic acid methyl ester and (R)-6-[(S)-2-((1S,3S)-3-Carboxy-cyclopentyl)-3-oxo-hexahydro-imidazo[1,5-a]pyrazin-7-ylmethyl]-4-(2-chloro-4-fluoro-phenyl)-2-thiazol-2-yl-1,4-dihydro-pyrimidine-5-carboxylic acid methyl ester] | 7583 |  |  | >751 | 91 | 5.3 | 0.012 | 
8 | CCOC(=O)C1=C(CN2CCN3C(=O)NC[C@@H]3C2)NC(c2nccs2)=N[C@H]1c1ccc(F)cc1Br [Example 14, Ethyl (4R)-6-[[(8aR)-3-oxo-1,2,5,6,8,8a-hexahydroimidazo[1,5-a]pyrazin-7-yl]methyl]-4-(2-bromo-4-fluoro-phenyl)-2-thiazol-2-yl-1,4-dihydropyrimidine-5-carboxylate] | 13016 | 23 | 0.002 |  |  |  |  | 
9 | CCOC(=O)C1=C(CN2CCN3C(=O)N(CC4(C(=O)O)CCC4)C[C@@H]3C2)NC(c2nccs2)=N[C@H]1c1cccc(F)c1Cl [Example 60, 6-[(S)-2-(1-Carboxy-cyclobutylmethyl)-3-oxo-hexahydro-imidazo[1,5-a]pyrazin-7-ylmethyl]-4-((R)-2-chloro-3-fluoro-phenyl)-2-thiazol-2-yl-1,4-dihydro-pyrimidine-5-carboxylic acid ethyl ester] | 11333 | 68 | 0.006 |  |  |  |  | 436 (≈ 691 µM)
10 | CCOC(=O)C1=C(CN2CCN3C(=O)N(CC(C)(C)O)C[C@@H]3C2)NC(c2nccs2)=N[C@H]1c1cccc(F)c1Cl (single isomer, unassigned) [Example 106B] | 21666 | 65 | 0.003 |  |  |  |  | 
11 | CCCOC(=O)C1=C(CN2CCN3C(=O)N(CC(C)(C)C(=O)O)C[C@@H]3C2)NC(c2nccs2)=N[C@H]1c1cccc(F)c1Cl [Example 93, 3-[(8aS)-7-[[(4R)-4-(2-chloro-3-fluoro-phenyl)-5-propoxycarbonyl-2-thiazol-2-yl-1,4-dihydropyrimidin-6-yl]methyl]-3-oxo-5,6,8,8a-tetrahydro-1H-imidazo[1,5-a]pyrazin-2-yl]-2,2-dimethyl-propanoic acid] | 7167 | 86 | 0.012 |  |  |  |  | 
12 | COC(=O)C1=C(CN2CCN3C(=O)NCC3(C(=O)OC)C2)NC(c2nccs2)=N[C@H]1c1ccc(F)cc1Cl (stereo partly drawn) [Example 89, Methyl 7-[[(4R)-4-(2-chloro-4-fluoro-phenyl)-5-methoxycarbonyl-2-thiazol-2-yl-1,4-dihydropyrimidin-6-yl]methyl]-3-oxo-2,5,6,8-tetrahydro-1H-imidazo[1,5-a]pyrazine-8a-carboxylate] | 10714 | 75 | 0.007 |  |  |  |  | 
13 | CCOC(=O)C1=C(CN2CCN3C(=O)NCC3(C(=O)OC)C2)NC(c2nccs2)=N[C@H]1c1cccc(F)c1Cl (stereo partly drawn) [Example 24, Methyl 7-[[(4R)-4-(2-chloro-3-fluoro-phenyl)-5-ethoxycarbonyl-2-thiazol-2-yl-1,4-dihydropyrimidin-6-yl]methyl]-3-oxo-2,5,6,8-tetrahydro-1H-imidazo[1,5-a]pyrazine-8a-carboxylate] | 37857 | 53 | 0.001 |  |  |  |  | 
14 | CCOC(=O)C1=C(CN2CCN3C(=O)N(c4ccc(C(=O)O)cc4)C[C@@H]3C2)NC(c2nccs2)=N[C@H]1c1cccc(F)c1Cl [Example 26, (R)-6-[(S)-2-(4-Carboxy-phenyl)-3-oxo-hexahydro-imidazo[1,5-a]pyrazin-7-ylmethyl]-4-(2-chloro-3-fluoro-phenyl)-2-thiazol-2-yl-1,4-dihydro-pyrimidine-5-carboxylic acid ethyl ester] | 18620 | 28 | 0.002 |  |  |  |  | 
